The results in this text go back to patent US20100267803A1, “Regulators Of Fat Metabolism As Anti-Cancer Targets” (The Research Foundation of State University Of New York, priority 2008, published 2010).

Holding throughout (assay type): cell-based, human
One data set deals with ME1 mRNA. In words: qRT-PCR of ME1 mRNA in BT474 cells. To be noted: shRNA 48 h. The method, then: (§1) FIG. 5. (a) MDH1 and ME1 mRNA levels of BT474 cells treated with luciferase (control), PBP or NR1D1 shRNAs for 48 h, analyzed by qRT-PCRs. (Error bars are s.d from 3 experiments; **P<0.002 (b) BT474 and MCF-7 cells were transfected with luciferase (control) MDH1 and ME1 shRNAs (Error bars are s.d from 3 individual experiments; ***P=0.0003). (c) BT474 cells) assayed for cleaved Caspase-3 signal by immunofluorescence 48 h after transfection; cell nuclei were stained with Hoechst 33243. (d) Quantification of cleaved Caspase-3 signal from cells in (c). (Error bars are s.d from 3 individual experiments; ***P<0.005). (e) Enzymes involved in fatty acid synthesis and storage that are regulated by NR1D1 and PBP and their proposed contribution to energy production necessary for survival of ERBB2-positive breast cancer cells.
(§2) Cell viability—apoptosis assays. […] At least 30 fields were imaged per single experiment. […] Immunoblotting. […] PCR reaction was run using standard conditions.
For orientation: Quantitative PCR measures a nucleic acid by following its amplification.

The subject of the next data set is ERBB2 mRNA. In words: qRT-PCR of ERBB2 mRNA in BT474 cells. To be noted: shRNA 48 h. The method, then: Results are shown as percentage of control. (**P=0.03). (c) BT474 cells were transfected with luciferase (control), PBP and NR1D1 shRNAs and co-transfected with GFP. Green cells were counted at intervals and expressed as percentage of control. (Error bars are s.d from 3 individual experiments; *P<0.08, **P<0.03, ***P<0.005). (d) BT474 cells were transfected with luciferase (control), PBP or NR shRNAs for 48 h. Immunofluorescence was performed for cleaved Caspase-3 signal; cell nuclei were stained with Hoechst 33243. (e) Cells from […] were counted for cleaved Caspase-3 signal. (Error bars are s.d from 3 individual experiments; ***P<0.0003). (f) BT474 cells were transfected with luciferase (control) PBP, NR1D1 or PBP and NR1D1 shRNAs together and co-transfected with GFP. Transfected cells were counted at 24 h and 72 h and the 72 h-to-24 h ratio for each shRNA was calculated and expressed as % of the control shRNA (luciferase). (Error bars are s.d from 3 individual experiments; **P=0.01, ***P<0.002). (g) Cells from (f) were counted for cleaved Caspase-3 signal. (Error bars are s.d from 3 individual experiments; ***P<0.0001). (h) ERBB2 mRNA levels of BT474 cells transfected with luciferase (control), PBP or NR1D1 shRNAs for 48 h, analyzed by qRT-PCRs. (Error bars are s.d from 3 individual experiments; ***P=0.0001).
Cell viability—apoptosis assays. […]

The subject of a further data set is NR1D1. Nature of the data set: Immunoblot of NR1D1 protein after shRNA. To be noted: after shRNA transfection.
Text: as §2
For orientation: A western blot detects proteins with antibodies after separation by electrophoresis.

Another data set has as its system ACLY mRNA. Nature of the data set: qRT-PCR of ACLY mRNA in BT474 cells. To be noted: shRNA or 20 μM GW9662 for 48 h. The method, then:
FIG. 4 NR1D1 and PBP coordinate fatty acid metabolism in breast cancer cells. (a) BT474, MDA-MB-361, MCF-7 and HMEC cells were stained with Oil-Red O lipid and hematoxylin nuclear stains. (b) Fat stores were quantified by BODIPY 493/503 lipid probe staining (Error bars are s.d from 3 individual experiments). (c) FASN, ACLY, ACACA and FADS2 mRNA levels of BT474 cells treated with luciferase (control), PBP or NR1D1 shRNAs, or with vehicle and 20 μM of GW9662 for 48 h, analyzed by qRT-PCRs. (Error bars are s.d from 3 experiments; ***P<0.001, **P=0.005) (d) BT474 cells were transfected with FASN, ACLY and ACACA shRNAs and co-transfected with GFP. Transfected cells were counted at 24 h and 72 h and the 72h-to-24 h ratio for each shRNA was calculated and expressed as % of the control shRNA (luciferase). (Error bars are s.d from 3 individual experiments; **P<0.01, ***P<0.002). (e) BODIPY images and (f) quantification of BT474 cells transfected with luciferase (control), PBP or NR1D1 shRNAs and co-transfected with DsRed (Error bars are s.d from 3 individual experiments; ***P<0.03). Arrows indicate transfected cells.
as §2

The subject of the next data set is MDH1 mRNA. Nature of the data set: qRT-PCR of MDH1 mRNA in BT474 cells. As to conditions: shRNA 48 h. The method, then: as §1, §2
For the next data set, the system named is NR1D1 mRNA. In words: qRT-PCR of NR1D1 mRNA in BT474 cells. As to conditions: shRNA 48 h, qRT-PCR. The method, then:
(§3) FIG. 2 NR1D1 and PBP are necessary for survival of ERBB2-positive cells. (a) PBP and NR1D1 mRNA levels of BT474 cells transfected with luciferase (control), PBP or NR1D1 shRNAs for 48 h, analyzed by qRT-PCRs. (Error bars are s.d from 3 experiments; ***P<0.003, **P=0.01, *P=0.02). (b) BMAL1 luciferase reporter activity of BT474 cells transfected with either empty vector (control), or NR1D1 shRNA for 48 h.
FIG. 3 PPAR. inhibition impacts NR1D1 expression and ERBB2-positive cells viability. (a) Cell counts of BT474, MDA-MB-361, MCF-7 and HMEC cells treated with vehicle, 10 and 20 μM of the PPAR. antagonist GW9662 for 72 hrs. Results represented as % of control (vehicle). (Error bars are s.d from 3 individual experiments; *P>0.2, **P<0.05, ***P<0.002). (b) BT474 cells treated with vehicle or 20 μM of GW9662 for 48 h were immuno-stained for cleaved Caspase-3. (c) Quantification of Caspase-3 signal. (Error bars are s.d from 3 individual experiments; ***P=0.002). (d) aP2 and NR1D1 mRNA levels of BT474 cells treated with vehicle (control) and 20 μM of GW9662 for 48 h, analyzed by qRT-PCRs. […]

The subject of another data set is PBP mRNA. In words: qRT-PCR of PBP mRNA in BT474 cells. As to conditions: shRNA 48 h. The method, then:
as §3, §2

On to “NR1D1 shRNA: shRNA, mature sequence GGCATGGTGTTACTGTGTA (shRNA)”, for which, in the data set with ME1 mRNA, the ME1 message levels entry is “significantly decreased”. In addition, the “mRNA levels of ERBB2” value with ERBB2 mRNA was “no effect”. For the same substance, in the data set with NR1D1, the NR1D1 protein levels entry is given as “decreased protein levels”. Further, in the data set with ACLY mRNA, the ACLY transcript level entry is recorded as “reduced”. In addition, the MDH1 message levels entry in the data set on MDH1 mRNA was “significantly decreased”. Moreover, the “decrease in mRNA levels of target (NR1D1)” value with NR1D1 mRNA was more than 60%.

As for “PBP shRNA: shRNA, mature sequence CCGAGTTCCTCTTATCCTA (shRNA)”, the “mRNA levels of ERBB2” value in the data set on ERBB2 mRNA is listed as “significantly decreased”. Besides, in the data set on ACLY mRNA, the ACLY transcript level result was “reduced”. Further, in the data set with PBP mRNA, the “decrease in mRNA levels of target (PBP)” value is given as more than 60%.
